Measurements: ChEMBL document CHEMBL1151354, “Isofraxidin, a cytotoxic coumarin from Micrandra elata (Euphorbiaceae)” (1980)
Values after ≈ are worked out from the molar mass of the structure shown.

Key:
KB = assay: Cytotoxicity against human KB cells; format: functional; conditions: read-out: ED50 (the source's name)
P388 = assay: Cytotoxicity against mouse P388 cells; format: functional; conditions: read-out: ED50 (the source's name)

Q: For `COc1cc2ccc(=O)oc2c(OC)c1O`, which EC50 (KB) is on record?
A: > 100 µg/mL

Q: And the EC50 (P388)?
A: 1.7 µg/mL (≈ 7.65 µM)
